Results: patent publication US20090221708A1, “Medicinal preparation” (priority 2004, published 2009)

Experiments:
[1] = system: filtrate formed from melanoma 16; experiment: Example 6: filtrate from melanoma 16 in the polarisation microscope; conditions: filtrate with the preparation; without it the light polarization is slight
Protocol: A filtrate formed from melanoma 16 (10 ml) was accommodated in a quartz vessel and detected in the polarisation microscope. Thereafter, sodium salt (O.F.1) was introduced into the filtrate, and a repeat detection was carried out in the polarisation microscope.

[2] = molecular target: T1, β-amyloid (protein) of the blood plasma (Homo sapiens, UniProt P05067); experiment: Example 4: β-amyloid of the blood plasma in test tube; format: biochemical
T1 construct: Into a test tube with β-amyloid (protein) of the blood plasma (pH=7.4); from tissue; host or cells: blood plasma
Protocol: Into a test tube with β-amyloid (protein) of the blood plasma (pH=7.4) with a concentration of 0.1 mmol/ml, three drops of 0.1% sodium salt aqueous solution (called O.F.1) are introduced. The test tube was thermostatically controlled at a temperature of 37° C. After 15 minutes, the protein concentration and the pH value of the blood plasma were measured. The protein concentration amounted to 0.03 mmol/ml, and the pH value amounted to 7.2.

melanoma-16 = experiment: Example 8: mice inoculated with melanoma-16; format: in vivo; conditions: for surviving mice in which no blastomas were ascertained / surviving mice with blastomas of approximately 0.3×0.2 mm: 36th day, 5 mg as a drink; for mice with isolated pulmonal metastases at dissection: surviving mice killed on the 36th day
[3] = system: cancer cells PC-3 (prostate carcinoma); experiment: Example 1: mitochondrial membranes of cancer cells PC-3 in test tubes; format: cell-based; conditions: PC-3, dilution 10^−5 mmol/l, 24 hours at 37° C.
Protocol: After thermostatically controlling the aforementioned test tubes in the course of 24 hours at a temperature of 37° C., the contents were analyzed.

[4] = molecular target: T2, Transthyretin (protein) of the blood plasma (Homo sapiens, UniProt P02766); experiment: Example 3: Transthyretin of the blood plasma in test tube; format: biochemical
T2 construct: Transthyretin (protein) of the blood plasma; from tissue; host or cells: blood plasma
Protocol: Into a test tube (10 ml) with Transthyretin (protein) of the blood plasma (pH=7.0) in a concentration of 0.05 mmol/ml, four drops of 0.1% MCPA aqueous solution were introduced. The test tube was thermostatically controlled at a temperature of 37° C. After 15 minutes, the concentration of Transthyretin and the pH value of the blood plasma were measured. Transthyretin was not found, and the pH value was 6.0.

hepatitis C = experiment: Example 12: patient N., hepatitis C, hepatargy and ascites, symptoms and blood counts; format: in vivo, human; conditions: after 2 weeks (250 mg twice a day)
[5] = system: adenocarcinoma of the prostate gland; experiment: Example 9: patient K., adenocarcinoma of the prostate gland, ultrasound, PSA and blood counts; format: in vivo, human; design: prostate had become smaller by (ultrasound): dose or concentration left out as unconfirmed
Protocol: An ultrasound test on 8 Aug. […] A PSA test on 8 Aug.
The patient declined an operation and chemotherapy. The patient was treated with the drug. On 9 Aug. […] The treatment lasted 10 days.

[6] = system: plasma of the blood of a sarcoma patient; experiment: Example 5: plasma of a sarcoma patient in the polarisation microscope; conditions: plasma with aqueous solution of the salt; dried plasma without it: light diffusion
Protocol: The blood of a sarcoma patient (10 ml) was centrifuged. A proportion of plasma was dried and detected in the polarisation microscope. Into the remaining proportion of plasma, an aqueous solution of lithium salt of MCPA acid was introduced, and the mixture was also detected in the polarization microscope.

T1 sequence (P05067 672-711 limits assumed): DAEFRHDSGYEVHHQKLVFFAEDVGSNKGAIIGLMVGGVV

SMILES: Cc1cc(Cl)ccc1OCC(=O)[O-].[Na+] [O.F.1]
- observation in the polarisation microscope [1]: pronounced polarization
- pH value of the blood plasma ([2]; after 15 minutes at 37° C., initial pH=7.4): 7.2
- protein (β-amyloid) concentration ([2]; three drops of 0.1% aqueous solution, 37° C., after 15 minutes, initial 0.1 mmol/ml): 0.03 mmol/mL
- surviving mice in which no blastomas were ascertained (melanoma-16): one
- surviving mice with blastomas of approximately 0.3×0.2 mm (melanoma-16): 8 mice
- mice died on the 23rd day (melanoma-16; single dose of 5 mg as a drink): one
- mice died on the 26th day (melanoma-16; single dose of 5 mg as a drink): one
- mice died on the 30th day (melanoma-16; single dose of 5 mg as a drink): 1 mice
- mice with isolated pulmonal metastases at dissection (melanoma-16): 4 mice

SMILES: COc1cccc2c1C(=O)c1c(O)c3c(c(O)c1C2=O)C[C@@](O)(C(=O)CO)C[C@@H]3O[C@H]1C[C@H](N)[C@H](O)[C@H](C)O1 [Adriamycin, reference compound]
- mitochondrial membranes of cancer cells (appearance) [3]: membrane swelling
- mice alive on the 36th day of the test (melanoma-16; single dose of 5 mg as a drink): 2 mice

SMILES: Cc1cc(Cl)ccc1OCC(=O)O [4-chlorine-2-methyl phenoxyacetic acid]
- pH value of the blood plasma ([4]; after 15 minutes at 37° C., initial pH=7.0): 6.0
- concentration of Transthyretin ([4]; four drops of 0.1% aqueous solution, 37° C., after 15 minutes, initial 0.05 mmol/ml): not found
- Albumin (hepatitis C; before treatment 2.0): 4.7 g/dL
- Bilirubin (hepatitis C; before treatment 2.9): 1.7 mg/dL
- Aspart aminotransferasis (hepatitis C; before treatment 73.0): 51.0 units/l
- Alanine aminotransferasis (hepatitis C; before treatment 77.0): 71.4 units/l
- Gammaglutamyl transferasis (hepatitis C; before treatment 129.0): 82.0 units/l
- Lactate dehydrogenasis (hepatitis C; before treatment 543.5): 335.0 units/l
- pains during urination ([5]; 10 days of treatment): became less
- prostate had become smaller by (ultrasound) ([5]; 10 days, before approximately 90 cm^3): 30%
- surviving mice in which no blastomas were ascertained (melanoma-16): 3 mice
- surviving mice with blastomas of approximately 0.3×0.2 mm (melanoma-16): 3 mice
- mice died on the 23rd day (melanoma-16; single dose of 5 mg as a drink): 2 mice
- mice with isolated pulmonal metastases at dissection (melanoma-16): 2 mice

SMILES: Cc1cc(Cl)ccc1OCC(=O)[O-].[Li+] [lithium salt of MCPA acid]
- observation in the polarisation microscope [6]: double refraction of rays
